Experimental findings from PubChem BioAssay (NCI) are described below.

Several values for one entry are separate records, joined by “and”; a condition that tells them apart may be missing. Equal values may be shown once.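 1) Cells in 96-well plates. 2) Compound, 48 h, 5 concentrations. 3) Linear interpolation between surrounding doses. 4) Unreached endpoint = highest concentration. Abbreviation: GI50, concentration required for 50% inhibition of growth. TGI is the concentration that stops growth completely.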

Some test systems named below: UACC-257 melanoma; A498 renal; NCI-H522 lung; NCI-H23 lung; NCI-H460 lung; OVCAR-5 ovarian; SN12C renal; A549 NSCLC; MCF7 breast; PC-3 prostate.
Holding throughout (experiment): NCI anticancer screen, dose series, 48 h

Turning to `C/C(=N\NC(=O)c1cccnc1)c1cccc(/C(C)=N/NC(=O)c2cccnc2)n1`, the TGI in the assay with UACC-257 melanoma was 35.4 µM; with A498 renal, 68.1 µM; with NCI-H522 lung it was 6.76 µM; with NCI-H23 lung it was more than 100 µM; with NCI-H460 lung, 34.6 µM; in the assay on OVCAR-5 ovarian, 8.28 µM. For the same molecule, the TGI in the assay on SN12C renal was more than 100 µM; in the assay on A549 NSCLC it was 34.7 µM. Also, the GI50 in the assay with A498 renal is 4.86 µM; in the assay with NCI-H522 lung, 1.58 µM.

Consider `CC(=O)OC1CC(O)CC2=CCC3C4CCC(C(C)(O)C(O)CC5COC(=O)C5C)C4(C)CCC3C21C` (stereo not given), for which the TGI with UACC-257 melanoma, with A498 renal, in the assay with NCI-H522 lung, in the assay on NCI-H23 lung, in the assay with MCF7 breast and with NCI-H460 lung was more than 25 µM each time. Also, the TGI in the assay with PC-3 prostate, with OVCAR-5 ovarian, with SN12C renal and with A549 NSCLC was more than 25 µM throughout.

As for `O=C1c2cc3c(cc2-c2c1c1ccc(Cl)cc1c(=O)n2C[C@H](O)[C@@H](O)[C@H](O)CO)OCO3`, the GI50 in the assay on UACC-257 melanoma is 0.0771 µM; with A498 renal it was 0.0673 µM; with NCI-H522 lung, 0.0117 µM; with NCI-H23 lung, 0.0293 µM; in the assay on MCF7 breast it was less than 0.01 µM; in the assay on NCI-H460 lung, 0.0284 µM. The GI50 was 0.128 µM in the assay on PC-3 prostate, 0.0524 µM with OVCAR-5 ovarian, 0.0473 µM with SN12C renal and 0.112 µM with A549 NSCLC. Also, the TGI in the assay on UACC-257 melanoma came to 0.396 µM; in the assay with A498 renal it was 0.207 µM; in the assay with NCI-H522 lung, 0.172 µM; with NCI-H23 lung, 0.193 µM; in the assay with MCF7 breast, 0.178 µM; in the assay with NCI-H460 lung it was 0.153 µM. In addition, the TGI with PC-3 prostate was more than 100 µM; in the assay on OVCAR-5 ovarian, 1.29 µM; in the assay with SN12C renal, more than 100 µM; with A549 NSCLC it was 0.476 µM.

Regarding `CC1(C)CCC2(C(=O)OC3OC(CO)C(O)C(O)C3O)CCC3(C)C(=CCC4C5(C)CCC(OC6OC(CO)C(O)C(O)C6O)C(C)(C)C5CCC43C)C2C1` (stereo not given), the TGI was more than 25 µM in the assay on UACC-257 melanoma; more than 25 µM in the assay on A498 renal; 12.9 µM with NCI-H522 lung; more than 25 µM in the assay on NCI-H23 lung; more than 25 µM in the assay on MCF7 breast; more than 25 µM in the assay with NCI-H460 lung. Further, the TGI in the assay with PC-3 prostate, in the assay with OVCAR-5 ovarian, in the assay on SN12C renal and in the assay on A549 NSCLC was more than 25 µM each time.

`O=[N+]([O-])c1ccc2c(c1)c(N=NC(=S)NC1CCCCC1)c(O)n2CN1CCOCC1`: the TGI stood at 22.7 µM with UACC-257 melanoma; 17.5 µM in the assay with A498 renal; 30.3 µM in the assay with NCI-H522 lung; 21.4 µM in the assay on NCI-H23 lung; 17.4 µM with MCF7 breast; 13.5 µM in the assay on NCI-H460 lung. Besides, the TGI in the assay on PC-3 prostate came to 19 µM; in the assay on OVCAR-5 ovarian, 23.8 µM; with SN12C renal it was 19.7 µM; with A549 NSCLC, 15.7 µM.

Take `O=S1(=O)OC(c2ccc(O)cc2)(c2ccc(O)cc2)c2ccccc21`: the TGI in the assay with UACC-257 melanoma, in the assay on A498 renal, in the assay on NCI-H522 lung, in the assay on NCI-H23 lung, with MCF7 breast and in the assay on NCI-H460 lung was more than 100 µM each time. Also, the TGI with PC-3 prostate, in the assay with OVCAR-5 ovarian, in the assay on SN12C renal and with A549 NSCLC was more than 100 µM in each case.

As to `Clc1ccc(Nc2nc(Cl)c3[nH]cnc3n2)cc1Cl`, the TGI in the assay with UACC-257 melanoma was 83.3 µM; with A498 renal, 34.9 µM; with NCI-H522 lung, 56.7 µM; with NCI-H23 lung it was 73.2 µM; with MCF7 breast it was more than 100 µM; in the assay on NCI-H460 lung, 62.7 µM. The TGI is 66.2 µM with PC-3 prostate, more than 100 µM with OVCAR-5 ovarian, more than 100 µM in the assay on SN12C renal and more than 100 µM in the assay on A549 NSCLC.

Turning to `O=[n+]1c2c(n([O-])c3ccccc31)-c1cccc3cccc-2c13`, the TGI with UACC-257 melanoma, with A498 renal, in the assay on NCI-H522 lung, in the assay on NCI-H23 lung, with MCF7 breast and in the assay with NCI-H460 lung was more than 100 µM throughout. The TGI in the assay on PC-3 prostate, with SN12C renal and with A549 NSCLC was more than 100 µM in each case.

Consider `CCOC(=O)/C(=C\NCC(OCC)OCC)c1nc2ccccc2[nH]1`, for which the TGI was 58.7 µM with UACC-257 melanoma; more than 100 µM with A498 renal; 62.1 µM with NCI-H522 lung; 56.4 µM with NCI-H23 lung; more than 100 µM with MCF7 breast; 71.5 µM with NCI-H460 lung. Further, the TGI is 63.7 µM in the assay with PC-3 prostate, more than 100 µM with OVCAR-5 ovarian, more than 100 µM with SN12C renal and more than 100 µM in the assay on A549 NSCLC.

As to `CCOC(=O)C1CCn2c(nc3c2c(=O)n(C)c(=O)n3C)S1` (stereo not given), the TGI in the assay with UACC-257 melanoma, in the assay on NCI-H522 lung, in the assay with NCI-H23 lung, with NCI-H460 lung, in the assay with OVCAR-5 ovarian and with SN12C renal was more than 100 µM in each case. The molecule further gave a TGI in the assay on A549 NSCLC of more than 100 µM.

For `N[C@H]1CCN(c2c(F)cc3c(=O)c(C(=O)O)cn4c3c2Oc2cc3c(ccc5ccccc53)cc2-4)C1`, the TGI is more than 100 µM with UACC-257 melanoma; more than 100 µM in the assay on A498 renal; more than 100 µM in the assay with NCI-H522 lung; more than 100 µM with NCI-H23 lung; more than 100 µM in the assay on MCF7 breast; 5.28 µM with NCI-H460 lung. The TGI with PC-3 prostate is 6.34 µM; in the assay with OVCAR-5 ovarian it was more than 100 µM; in the assay on SN12C renal, more than 100 µM; with A549 NSCLC, more than 100 µM.

For `CC[C@@]1(O)C(=O)OCc2c1cc1n(c2=O)Cc2c-1nc1ccc(O)cc1c2CC[Si](C)(C)C`, the TGI in the assay with UACC-257 melanoma was 0.136 µM and 0.0447 µM; in the assay with A498 renal, 0.0279 µM; with NCI-H522 lung, 0.299 µM; with NCI-H23 lung, 0.0103 µM and 0.0118 µM; in the assay with NCI-H460 lung, 0.00445 µM and 0.0117 µM; in the assay on PC-3 prostate, more than 100 µM. Further, the TGI in the assay on OVCAR-5 ovarian is 0.267 µM and 0.375 µM; in the assay with A549 NSCLC, 0.24 µM and 0.167 µM. Further, the GI50 with PC-3 prostate was 0.0525 µM.
